Experimental data: publication PMC11801377, “A uniquely efficacious type of CFTR corrector with complementary mode of action” (Science Advances, 2024)

Key:
[1] = test system: F508del.L15W-CFTR; assay: Site-directed mutagenesis immunoblotting, HEK-TREx, F508del.L15W-CFTR; assay type: cell-based, human; conditions: 40 h, 2 μM
Description: (§1) The human CFTR expressing HEK cell pools with the mutations described below were generated by integrase-mediated homologous recombination of the CFTR sequence into the T-REx HEK293 background (Thermo Fisher Scientific). This expression system allows the tetracycline-inducible expression of genes of interest from one defined insertion site. Parental T-REx-HEK293 cells were cultivated in growth medium: Dulbecco’s modified Eagle’s medium + GlutaMAX-I (#31966, Life Technologies), 10% dialyzed FBS (Gibco, #26400), penicillin (100 U/ml), streptomycin (100 μg/ml), hygromycin B (0.1 mg/ml; Life Technologies), blasticidin (5 μg/ml; Invitrogen, #R210-01), and 0.1 mM nonessential amino acid solution (Invitrogen, #11140-035). Recombinant T-REx-HEK-CFTR cells were generated by lipofectamine transfection (Life Technologies) of plasmids containing mutated versions of CFTR (RefSeq NM_000492) and then cultivated in selection medium [growth medium containing Geneticin (1 mg/ml) (Invitrogen, #10131-027) instead of hygromycin]. The plasmid constructs were synthetized by GENEART (Thermo Fisher Scientific) and designed with the WT CFTR intron 5 to 6 (880 nucleotides) to prevent leaky expression issues during the cloning process in bacteria. […]

[2] = target: T1, S945L CFTR (Homo sapiens, UniProt P13569, S945L); assay: CFTR correction (immunoblotting), HEK-TREx, S945L; assay type: cell-based; conditions: 48 hours, IDOR-3 2 μM, IDOR-4 0.4 μM, TEZ 2 μM + ELX 0.4 μM
T1 construct: expressed in transfected cells; host or cells: T-REx HEK293
Description: as §1

[3] = target: T2, R1066C CFTR (Homo sapiens, UniProt P13569, R1066C); assay: CFTR correction (immunoblotting), HEK-TREx, R1066C; assay type: cell-based; conditions: 48 hours, IDOR-3 2 μM, IDOR-4 0.4 μM, TEZ 2 μM + ELX 0.4 μM
T2 construct: expressed in transfected cells; host or cells: T-REx HEK293
Description: as §1

[4] = target: T3, G85E CFTR (Homo sapiens, UniProt P13569, G85E); assay: CFTR correction (immunoblotting), HEK-TREx, G85E; assay type: cell-based; conditions: 48 hours, IDOR-3 2 μM, IDOR-4 0.4 μM, TEZ 2 μM + ELX 0.4 μM
T3 construct: expressed in transfected cells; host or cells: T-REx HEK293
Description: as §1

T2 sequence (P13569 whole entry R1066C): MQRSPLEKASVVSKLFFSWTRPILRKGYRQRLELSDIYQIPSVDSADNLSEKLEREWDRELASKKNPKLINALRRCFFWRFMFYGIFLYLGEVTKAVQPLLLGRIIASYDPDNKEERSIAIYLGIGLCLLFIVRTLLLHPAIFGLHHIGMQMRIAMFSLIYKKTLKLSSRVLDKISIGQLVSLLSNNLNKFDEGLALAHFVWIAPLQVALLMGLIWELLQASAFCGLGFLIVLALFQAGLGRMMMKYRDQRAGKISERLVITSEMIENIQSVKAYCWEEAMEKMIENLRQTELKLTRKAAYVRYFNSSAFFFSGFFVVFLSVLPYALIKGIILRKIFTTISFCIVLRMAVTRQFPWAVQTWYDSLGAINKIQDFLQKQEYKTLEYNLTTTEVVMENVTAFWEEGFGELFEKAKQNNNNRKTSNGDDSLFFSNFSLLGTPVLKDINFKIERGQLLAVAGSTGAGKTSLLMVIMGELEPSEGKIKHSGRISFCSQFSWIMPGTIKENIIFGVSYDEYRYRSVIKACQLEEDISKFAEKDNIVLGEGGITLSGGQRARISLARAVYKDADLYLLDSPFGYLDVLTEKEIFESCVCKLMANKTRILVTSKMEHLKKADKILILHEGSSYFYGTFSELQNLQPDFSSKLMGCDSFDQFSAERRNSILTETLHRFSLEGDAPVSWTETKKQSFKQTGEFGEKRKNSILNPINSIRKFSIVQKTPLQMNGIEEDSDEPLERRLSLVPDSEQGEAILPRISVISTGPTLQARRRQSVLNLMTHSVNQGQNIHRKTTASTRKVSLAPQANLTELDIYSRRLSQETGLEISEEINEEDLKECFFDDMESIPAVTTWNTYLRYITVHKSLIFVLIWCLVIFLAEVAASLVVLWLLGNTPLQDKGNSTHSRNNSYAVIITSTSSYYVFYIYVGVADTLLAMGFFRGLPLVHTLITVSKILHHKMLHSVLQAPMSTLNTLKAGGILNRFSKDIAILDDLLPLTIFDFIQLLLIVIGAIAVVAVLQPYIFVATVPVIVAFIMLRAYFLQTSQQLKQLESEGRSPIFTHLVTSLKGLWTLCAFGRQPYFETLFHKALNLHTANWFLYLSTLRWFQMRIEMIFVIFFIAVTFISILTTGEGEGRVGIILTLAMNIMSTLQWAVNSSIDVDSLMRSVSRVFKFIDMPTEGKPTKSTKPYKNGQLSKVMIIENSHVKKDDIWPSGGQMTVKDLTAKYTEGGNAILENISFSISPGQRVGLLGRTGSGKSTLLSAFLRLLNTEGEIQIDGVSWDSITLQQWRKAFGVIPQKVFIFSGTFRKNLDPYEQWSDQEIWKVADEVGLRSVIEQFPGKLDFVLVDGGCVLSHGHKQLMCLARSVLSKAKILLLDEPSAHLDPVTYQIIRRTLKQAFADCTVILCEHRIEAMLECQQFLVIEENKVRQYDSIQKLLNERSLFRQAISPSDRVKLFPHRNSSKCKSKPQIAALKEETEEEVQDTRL
T3 sequence (P13569 whole entry G85E): as the sequence (P13569 whole entry R1066C) above, with G85E, C1066R counted along it
T1 sequence (P13569 whole entry S945L): as the sequence (P13569 whole entry R1066C) above, with S945L, C1066R counted along it

COc1cc(CCNC(=O)C2CC(=O)N(C)C(CC(C)C)C(=O)N3CCCCC3C(=O)NC(Cc3ccccc3)COc3ccc4ncc(F)cc4c3C(=O)N2)on1 (stereo not shown) [IDOR-3]
correction by macrocycles versus [LUM + BAM] [1]: little difference
correction of S945L [2]: highly effective
correction of R1066C [3]: highly effective
correction of G85E [4]: highly effective
